# Patent US7915272B2 (priority 2006, dated 2011)
# Structures can show the parent of a compound that is named as a salt.
# Biological target: α7-subtype of nicotinic receptors (Rattus norvegicus, UniProt Q05941)
# Assay: biochemical
# Format: binding
# Chain of α7-subtype of nicotinic receptors (Q05941 23-502): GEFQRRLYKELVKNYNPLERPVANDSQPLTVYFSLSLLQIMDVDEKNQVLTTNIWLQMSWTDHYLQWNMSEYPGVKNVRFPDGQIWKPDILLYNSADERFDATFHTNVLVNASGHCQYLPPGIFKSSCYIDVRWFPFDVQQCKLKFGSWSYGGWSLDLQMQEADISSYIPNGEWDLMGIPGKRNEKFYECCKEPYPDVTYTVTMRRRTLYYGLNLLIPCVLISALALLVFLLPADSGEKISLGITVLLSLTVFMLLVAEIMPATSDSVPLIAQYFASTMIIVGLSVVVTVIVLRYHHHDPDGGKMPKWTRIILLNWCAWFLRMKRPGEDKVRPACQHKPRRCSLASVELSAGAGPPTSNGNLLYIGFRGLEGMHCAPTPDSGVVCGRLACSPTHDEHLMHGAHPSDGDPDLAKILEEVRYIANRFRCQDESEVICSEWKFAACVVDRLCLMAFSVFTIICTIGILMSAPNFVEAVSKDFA
smiles,measurement,value
"O=C(Nc1cnc(N2CCN3CCC2CC3)nc1)c1ccccc1F [Compound 1, N-[2-(1,4-Diaza-bicyclo[3.2.2]non-4-yl)-pyrimidin-5-yl]-2-fluoro-benzamide hydrochloric acid salt]",IC50,< 100 nM
